Results on 32 molecules are retold here after the RepoRT retention time repository (doi:10.1021/es4044374).

This series can be described thus: RP, Waters XBridge C18, 50 × 2.1 mm, 3.5 µm, 30 °C, 0.2 mL/min, estimated dead time 0.55 min; A: water + 0.1% formic acid, pH 3; B: methanol + 0.1% formic acid, pH 3; gradient (min/%B) 0/10 4/50 17/95 25/95 25.1/10 30/10. As to conditions: stereoisomer not certain.

`Cc1c(N(C)C)c(=O)n(-c2ccccc2)n1C` [Aminopyrine]: the LC retention time is 2.6 min.
With `c1ccc(C2CN3CCSC3=N2)cc1` (configuration not stated) [Levamisole], the LC retention time is 2.9 min.
Next, `CC(C)(C)C(O)(CCc1ccc(Cl)cc1)Cn1cncn1` (configuration not stated) [Tebuconazole]: 12.8 min; `CCN(CC)C(=O)SCc1ccccc1Cl` [Orbencarb]: 13.3 min; `C[Si](Cn1cncn1)(c1ccc(F)cc1)c1ccc(F)cc1` [Flusilazole]: 12.4 min.
`CN(C)CC(c1ccc(O)cc1)C1(O)CCCCC1` (configuration not stated) [O-desmethylvenlafaxine]: the LC retention time is 4.8 min.
Regarding `COc1ccc2c(c1)c(CC(=O)O)c(C)n2C(=O)c1ccc(Cl)cc1` [Indomethacin], the LC retention time is 12.9 min.
With `CSc1nc(N)nc(NC(C)(C)C)n1` [Irgarol-descyclopropyl] the figure was 6.7 min.
With `CNC(=O)Nc1ccc(C(C)C)cc1` [Isoproturon-monodemethyl] the figure was 8.6 min; with `CS(=O)(=O)c1ccc(C(=O)C2C(=O)CCCC2=O)c(Cl)c1` [Sulcotrione], 6.8 min; with `O=C(O)COc1ccc(Cl)cc1Cl` [2,4-D], 9.1 min.
For `CC(C)N1C(=O)c2ccccc2NS1(=O)=O` [Bentazone], the LC retention time is 7.5 min.
Next, `CC(N)Cc1ccccc1` (configuration not stated) [Amphetamine]: 3.5 min; `CC(C)NCC(O)COc1cccc2ccccc12` (configuration not stated) [Propranolol]: 6.6 min; `COc1ccc(CCN(C)CCCC(C#N)(c2ccc(OC)c(OC)c2)C(C)C)cc1OC` (configuration not stated) [Verapamil]: 7.3 min.
Next, `N#CN=C1SCCN1Cc1ccc(Cl)nc1` [Thiacloprid]: 5.8 min; `CC(O)C(=O)Nc1c(I)c(C(=O)NC(CO)CO)c(I)c(C(=O)NC(CO)CO)c1I` (configuration not stated) [Iopamidol]: 1.2 min; `COc1ccnc(CS(=O)c2nc3ccc(OC(F)F)cc3[nH]2)c1OC` (configuration not stated) [Pantoprazole]: 6.6 min.
As for `CCCOC(=O)NCCCN(C)C` [Propamocarb], the LC retention time is 2.4 min.
In the case of `CC(C)(C)Nc1nc(N)[nH]c(=O)n1` [Terbutylazine-desethyl-2-hydroxy], the LC retention time was 2.9 min.
As to `Cn1ncc(N)c(Cl)c1=O` [Chloridazone-methyl-desphenyl], the LC retention time was 2.2 min.
Next, `O=P(O)(OCCC(F)(F)C(F)(F)C(F)(F)C(F)(F)C(F)(F)C(F)(F)C(F)(F)C(F)(F)F)OCCC(F)(F)C(F)(F)C(F)(F)C(F)(F)C(F)(F)C(F)(F)C(F)(F)C(F)(F)F` [Bisperfluorodecyl phosphate]: 20.4 min.
For `N#Cc1cc(Br)c(O)c(Br)c1` [Bromoxynil], the LC retention time was 8.3 min.
Next, `CNC(=O)CSP(=S)(OC)OC` [Dimethoate]: 5.2 min; `CC(=O)SC1CC2=CC(=O)CCC2(C)C2CCC3(C)C(CCC34CCC(=O)O4)C12` (configuration not stated) [Spironolactone]: 10.2 min.
Next, `COC(=O)N(OC)c1ccccc1COc1ccn(-c2ccc(Cl)cc2)n1` [Pyraclostrobin]: 13.4 min.
Next, `CN1CCN(C2=Nc3cc(Cl)ccc3Nc3ccccc32)CC1` [Clozapine]: 6.4 min; `COc1ccc2c(c1)C13CCCCC1C(C2)N(C)CC3` (configuration not stated) [Dextromethorphan]: 6.6 min; `CC(C)NCC(O)COc1ccc(CC(N)=O)cc1` (configuration not stated) [Atenolol]: 2 min.
As for `Nc1ccc(S(=O)(=O)Nc2ccccn2)cc1` [Sulfapyridine], the LC retention time was 2.9 min.
Take `CCn1cc(C(=O)O)c(=O)c2cc(F)c(N3CCNCC3)cc21` [Norfloxacin]: the LC retention time was 4.4 min.
With `c1ccc2n[nH]nc2c1` [1H-Benzotriazole] the figure was 4.4 min.
